Article PMC7385626 (Scientific Reports, 2020)
“And” between values parts separate entries of the source, which are not always exact repeats. Equal values may be shown once.

test system: HeLa cells; test: Cell migration assay; type: cell-based
Description: Ag(I) compounds at 30% maximal inhibitory concentration (IC30) managed to inhibit tumor cell migration with low cytotoxicity (data not shown). In addition, this cytotoxic ability of Ag(I) compounds at 20% maximal inhibitory concentration (IC20) allowed the suppression of cell migration without damaging the cell membrane at non-toxic concentrations (data not shown). […] While untreated HeLa cells filled 100% of the gap, compounds 2, 3, and 4 managed to spread to 9%, %11, 15% of the gap, respectively (Figure S16; Supplementary Material, Day 2). In addition, the media with Ag(I) compounds were replaced with fresh media following the 72-h incubation, but the HeLa cells could not fill the gap (data not shown). […]. The result was consistent with that of the other studies on Ag(I) complexes containing different ligands[73],[74],[78],[80],[81],[83]–[87].
The migration feature of the 2, 3 and 4 was monitored using the cell migration method. Briefly, an equal number of HeLa cells (3.5 × 10^4 HeLa cells) were seeded into the two reservoirs separated by a 500 µm thick wall and allowed to grow to 90–95 % confluence. […]. The closure of the gap by the cells was photographed 0, 1 and 2 days after incubation by using a phase contrast inverted microscope.
Fig. S16. Effect of 2, 3 and 4 on the migration of HeLa cell line. […]

Going from “[Cd(N-bishydeten)]4[Ag(CN)2]8[Ag(CN)]2 [Complex 4]” to [Cu(N-bishydeten)Ag3(CN)5] [Complex 2], the “part of the gap filled by HeLa cells (migration)” value falls from 15% to 9%.

In the case of [Zn(N-bishydeten)Ag3(CN)5] [Complex 3], the “part of the gap filled by HeLa cells (migration)” value is reported as 11%.

test system: E. coli 111; test: Disc diffusion assay; type: cell-based, Escherichia coli
Protocol: (§1) Therefore, the pathogen bacterial flora and the opportunistic agents may be taken into consideration both in the management of cancer patients and in individual susceptibility to cancer. Indeed, dual acting factors with antimicrobial and antiproliferative potentials can result in improved therapeutic efficacy for cancer cell patients or reduced cancer predisposition. […]. In this study, 10 microbial cultures of this part, belonging to ten types of bacterial were used. The culture was grown in Mueller–Hinton Broth (Merck) for all the bacterial strains at 36 °C. Antimicrobial test was carried out by using disc-diffusion assay utilizing 100 µL of suspension with 10^8 CFU/mL of bacteria and 10^6 CFU/mL of yeast spread on Nutrient Agar and Potato Dextrose Agar, respectively. Also, the blank disc (Oxoid = 6 mm in diameter) was impregnated with 20 µL of each substance (105 µg/disc) and placed on the inoculated agar. Negative controls ([…]) were prepared using the same solvent (water) employed to dissolve each substance. […]. The inoculated plate was incubated at 36 °C for clinical bacterial strains. Antimicrobial activities were evaluated by obtaining the zone of inhibitory effect against the test organisms.

Compared with “[Cd(N-bishydeten)]4[Ag(CN)2]8[Ag(CN)]2 [Complex 4]”, [Cu(N-bishydeten)Ag3(CN)5] [Complex 2] is higher in “inhibition zones, E. coli 111” value: 29 ± 0.58 mm for the first, 32 ± 0.0 mm for the second.

[Zn(N-bishydeten)Ag3(CN)5] [Complex 3] was tested, and the “inhibition zones, E. coli 111” value was 30 ± 0.58 mm.

test system: KpnI and BamHI; test: Inhibition of restriction endonucleases activity (pTOLT plasmid digestion); type: biochemical
Protocol: Fig. S12. […] Following 4 h 37°C digestion of the 14µL with 10U KpnI and BamHI, these digestion products were resolved with 1.5% agarose gel containing ethidium bromide. Lane 1: enzyme + DNA + complex 4, Lane 2: enzyme + DNA + complex 3, Lane 3: enzyme + DNA + complex 2, Lane 4: Positive control (enzyme + DNA), Lane 5: Negative control (plasmid DNA + water); lane 6: DNA marker (1Kb).

With “[Cd(N-bishydeten)]4[Ag(CN)2]8[Ag(CN)]2 [Complex 4]” the “effect on restriction endonucleases activity (KpnI and BamHI digestion of pTOLT plasmid DNA)” value (shortened to “effect”) was “failed to inhibit the restriction endonucleases activity”.
[Cu(N-bishydeten)Ag3(CN)5] [Complex 2] was tested, and the “effect” value was “caused the formation of two DNA bands (Lane 3) corresponding to the supercoiled and nicked DNA”.
[Zn(N-bishydeten)Ag3(CN)5] [Complex 3] was tested, and the “effect” value was “failed to inhibit the restriction endonucleases activity”.

test system: B. subtilis ATCC6633; test: Disc diffusion assay; type: cell-based, Bacillus Subtilis
Protocol: as §1

Going from “[Cd(N-bishydeten)]4[Ag(CN)2]8[Ag(CN)]2 [Complex 4]” to [Cu(N-bishydeten)Ag3(CN)5] [Complex 2], the “inhibition zones, B. subtilis ATCC6633” value falls from 34 ± 0.58 mm to 27 ± 0.58 mm.

With [Zn(N-bishydeten)Ag3(CN)5] [Complex 3] the “inhibition zones, B. subtilis ATCC6633” value was 31 ± 1.0 mm.

test system: P. aeruginosa ATCC9027; test: Disc diffusion assay; type: cell-based, Pseudomonas Aureginosa
Protocol: as §1

“[Cd(N-bishydeten)]4[Ag(CN)2]8[Ag(CN)]2 [Complex 4]” and [Cu(N-bishydeten)Ag3(CN)5] [Complex 2] are the same in “inhibition zones, P. aeruginosa ATCC9027” value: 30 ± 0.58 mm for the first, 30 ± 1.0 mm for the second.

In the case of [Zn(N-bishydeten)Ag3(CN)5] [Complex 3], the “inhibition zones, P. aeruginosa ATCC9027” value is reported as 30 ± 1.0 mm.

target: BSA (Bos taurus, UniProt P02769); test: UV–Visible absorption titration, BSA binding constant; design: species or system Bovine
Description: UV–Visible absorption spectroscopy technique was also used to study interactions between BSA and 1–4. […] The some results of [BSA]/(εa − εf) = [BSA]/(εb − εf) + 1/[Kb(εb − εf)] in Fig. 9, used and also obtained. The binding constants for the 1–4 were found as 2.4 ± 0.22 × 10^4 M^−1, 4.3 ± 0.29 × 10^4 M^−1, 3.4 ± 0.23 × 10^4 M^−1 and 4.8 ± 0.29 × 10^4 M^−1, respectively. In Fig. 9, the increase in BSA concentrations leads to a change in the absorption of the complexes resulting in hypochromism for 1 and 3 and hyperchromism for 2 and 4.
To obtain the interaction act of the molecules with calf thymus DNA and also to determine the binding constants (Kb) UV–Visible absorption spectroscopy method was utilized. Indeed, 2.5 mg calf thymus DNA in this part was dissolved in Tris–HCl buffer and stabile pending seven days in the refrigerator. The concentration level of calf thymus DNA was calculated spectrophotometrically assay at 260 nm. This method was done according to previous studies.

In the case of “[Cd(N-bishydeten)]4[Ag(CN)2]8[Ag(CN)]2 [Complex 4]”, the “binding constant with BSA” value is reported as 4.8 ± 0.29 × 10^4 M^−1 and 4.8 x 10^4.
In the case of [Cu(N-bishydeten)Ag3(CN)5] [Complex 2], the “binding constant with BSA” value is reported as 4.3 ± 0.29 × 10^4 M^−1 and 4.3 x 10^4.
For [Zn(N-bishydeten)Ag3(CN)5] [Complex 3], the “binding constant with BSA” value was 3.4 ± 0.23 × 10^4 M^−1 and 3.4 x 10^4.

test system: HeLa; test: BrdU Cell Proliferation Assay (BCPA); type: cell-based
Description: (§2) The antiproliferative activities of Ag(I) molecules and the starting molecules of the parent molecules, N-bishydeten and [Ag(CN)2]^− compound, on cells, were monitored utilizing by the BrdU Cell Proliferation Assay (BCPA) (Fig. 6).
(§3) The antiproliferative activity of the 2, 3, 4, [Ag(CN)2]^− and 5FU against various cell lines (HeLa ATCC CCL-2, C6 cells ATCC CCL-107, HT29 ATCC HTB-38, and Vero ATCC CCL-81) were preserved and maintained in Dulbecco’s modified eagle’s medium, supplemented with %2 antibiotic (Streptomycin-Penicillin) solution and 10% fetal bovine serum.
(§4) The cell suspension including 5×10^3 cells in 100 µL was supplied into the well cell plates (96-well cell). The therapies of these cells with 2, 3, 4 and [Ag(CN)2]^− in DMSO (max 0.1% DMSO) and 5-Florouracil (5 FU) molecule in DMSO (max 0.1% DMSO) separately at concentration 0.25, 0.50, 1.00, 1.50, 2.00, 2.50, 3.75, and 5.00 µg/mL were carried out. The last volume was adapted to 200 µL by mixture and DMEM and also incubated for 24 h at 37°C with 5% CO2. The antiproliferative activities of the 2, 3, 4 and [Ag(CN)2]^− were determined with using BrdU Cell proliferation ELISA Kit conforming to manufacturer’s assay.
(§5) IC50 values the concentration of a factor which required for other method of in vitro.

Compared with “[Cd(N-bishydeten)]4[Ag(CN)2]8[Ag(CN)]2 [Complex 4]”, [Cu(N-bishydeten)Ag3(CN)5] [Complex 2] is 6-fold higher in IC50: 0.61 ± 0.09 µM for the first, 3.64 ± 0.42 µM for the second.

With [Zn(N-bishydeten)Ag3(CN)5] [Complex 3] the IC50 was 3.19 ± 0.37 µM.

test system: C6; test: BrdU Cell Proliferation Assay (BCPA); type: cell-based
Description: as §2, §3, §4, §5

Compared with “[Cd(N-bishydeten)]4[Ag(CN)2]8[Ag(CN)]2 [Complex 4]”, [Cu(N-bishydeten)Ag3(CN)5] [Complex 2] is 1.6-fold higher in IC50: 600 ± 90 nM for the first, 950 ± 90 nM for the second. The first is the more potent here.

For [Zn(N-bishydeten)Ag3(CN)5] [Complex 3], the IC50 was 3340 ± 340 nM.

test system: Vero; test: BrdU Cell Proliferation Assay (BCPA); type: cell-based
Description: as §2, §3, §4, §5

First: [Cd(N-bishydeten)]4[Ag(CN)2]8[Ag(CN)]2 [Complex 4]
Second: [Cu(N-bishydeten)Ag3(CN)5] [Complex 2]
The IC50 of the first is 4.5-fold lower: 630 ± 90 nM for the first, 2810 ± 320 nM for the second.

Work on [Zn(N-bishydeten)Ag3(CN)5] [Complex 3] yielded an IC50 of 3060 ± 350 nM.

test system: HeLa, HT29, C6 and Vero cells; test: BrdU Cell Proliferation Assay, range over the cell lines; type: cell-based
Description: as §2, §3, §4, §5

First: [Cd(N-bishydeten)]4[Ag(CN)2]8[Ag(CN)]2 [Complex 4]
Second: [Cu(N-bishydeten)Ag3(CN)5] [Complex 2]
The IC50 of the first is lower: 480 to 630 nM for the first, 870 to 3640 nM for the second.

[Zn(N-bishydeten)Ag3(CN)5] [Complex 3] was tested, and the IC50 was 2370 to 3340 nM.

test system: E. aerogenes 2924; test: Disc diffusion assay; type: cell-based, Enterobacter Aerogenes
Protocol: as §1

Going from “[Cd(N-bishydeten)]4[Ag(CN)2]8[Ag(CN)]2 [Complex 4]” to [Cu(N-bishydeten)Ag3(CN)5] [Complex 2], the “inhibition zones, E. aerogenes 2924” value falls from 25 ± 1.0 mm to 22 ± 1.0 mm.

[Zn(N-bishydeten)Ag3(CN)5] [Complex 3] was tested, and the “inhibition zones, E. aerogenes 2924” value was 20 ± 1.0 mm.
